According to patent US4540696A, “1-Piperazinyl 4-phenylquinazoline compounds having antidepressant properties and drugs containing same” (Sanofi S.A., priority 1982, dated 1985):

Columns and labels:
[1] = tested on: ptosis induced by reserpine; test: Antagonism of ptosis induced by reserpine; type: in vivo, female mouse, CDI (Charles Rivers, France); details: reserpine 2 mg/kg intravenous, 1 hour; for ED50: Mus musculus, po, per os, read-out: Antagonism of ptosis induced by reserpine, ED 50
Protocol: The majority of antidepressants antagonize the ptosis induced by reserpine. This test described by Gouret [Journal de Pharmacologie (Paris), 1973, 4(1), 105-128] was made in the female mouse, CDI (Charles Rivers, France) weighing from 18 to 23 g. The reserpine causes a ptosis 1 hour after its intravenous administration; certain antidepressants, particularly the imipraminics, oppose this ptosis.
The following protocol has been chosen:
The substances to be studied were administered per os to batches of 10 mice. The reserpine was administered simultaneously by the intravenous route at the dose of 2 mg/kg. 1 hour after the administration of reserpine, the number of animals not presenting ptosis is noted.

[2] = Toxicity; type: in vivo; details: per os; for Toxicity: in words (atoxic at the stated dose)
[3] = Pharmacological trials on the central nervous system (tests A to E, overall statement); type: in vivo, female mice, CDI (Charles Rivers, France); details: overall statement on Table II
Protocol: The products according to the invention have been subjected to pharmacological trials with a view to determining their activity on the central nervous system.
The various tests to which the products have been subjected will be indicated hereinbelow. In all cases, the products under study were administered per os.

[4] = tested on: hypothermia induced by reserpine; test: Antagonism of the hypothermia induced by reserpine; type: in vivo, female mice, CDI (Charles Rivers, France); details: reserpine 5 mg/kg i.p., 4 hours
Protocol: The majority of antidepressants antagonize the hypothermia induced by reserpine. This test was carried out according to the method described by HINO et Coll [Chem Pharm Bull 28 (9), 2618-2622, 1980] on female mice, CDI (Charles Rivers, France) weighing from 18 to 23 g.
(§1) The following protocol was chosen:
The substances to be studied are administered per os to batches of 10 mice, the controls receive the solvent along, simultaneously, the reserpine is administered i.p. at the dose of 5 mg/kg. The temperature of each animal is taken immediately before administration of the products to be tested and 4 hours afterwards. For each animal, the difference in temperature before and after treatment is calculated. The results are expressed in percentage of antagonism of the hypothermia observed in the controls.

[5] = tested on: toxicity of yohimbine; test: Potentialization of the toxicity of yohimbine; type: in vivo, female mice, CDI (Charles Rivers, France); details: Mus musculus, po, 18 h, read-out: Potentialization of yohimbine, ED 50
Protocol: The majority of antidepressants potentialize the toxicity of yohimbine. This test was carried out according to the method described by MALICK (in Antidepressants: Neurochemical Behavioural and Clinical Perspectives, eds S. J. Enna, J. B. Malick, E. Richelson, Raven Press, New York, pages 141-153) on female mice, CDI (Charles Rivers, France).
The substances to be studied are administered per os to batches of 10 mice. The yohimbine is administered i.p. 1 hour later at the dose of 30 mg/kg. Mortality is noted 18 hours later.

[6] = Porsolt test (despair reaction, reduction in immobilization time); type: in vivo, female mouse, CDI (Charles Rivers, France); details: per os, 1 hour before test
Protocol: This test was carried out in the female mouse, CDI (Charles Rivers, France) weighing from 18 to 23 g, according to the method described by Porsolt (Archives Internationales de Pharmacologie, 1977, 229, 327-336).
The principle of this test is as follows: when a mouse is placed in a narrow recipient, filled with water, it struggles and then, after 2 to 4 minutes, becomes still and floats on its stomach, its back rounded and its rear paws brought underneath its body; it makes only the few movements to enable it to hold its head out of the water. This is the so-called despair reaction.
Certain psychotherapeutics, particularly antidepressants, lengthen the time during which the mouse struggles.
as §1
The products to be studied were administered orally to batches of 10 mice. 1 hour later, the animals are placed in a narrow receipient (10×10×10 cm), filled with water up to a height of 6 cm, the temperature of the water being 24° C. The animals are left in the water for 6 minutes and the time during which the animal remains immobile between the second and the sixth minute is measured--the shorter the time, the more the substance is active.
The results are expressed as the reduction in the immobilization time with respect to controls.

[7] = tested on: tremors induced by oxotremorine; test: Antagonism of the tremors induced by oxotremorine; type: in vivo, female mice, CDI (Charles Rivers, France); details: Mus musculus, po, 0.5 h; per os; oxotremorine 1 mg/kg per os at 60 mins., read 30 mins. later; read-out: Antagonism of oxotremorine, ED 50
Protocol: This test was carried out on female mice, CDI (Charles Rivers, France) weighing from 18 to 23 g.
as §1
The products to be studied are administered at time 0 by the oral route to batches of 10 mice. At time 60 mins., the oxotremorine is administered per os at the dose of 1 mg/kg.

[8] = 10 mg/kg, ** p < 0.01 (all but 40 460, which has *)
[9] = at 10 mg/kg per os, ** p < 0.01

Row | SMILES | Antagonism of ptosis induced by reserpine, percentage ([1]; at 100 mg/kg per os) | Toxicity [2] | Activity on the tests carried out [3] | Antagonism of hypothermia induced by reserpine, percentage of antagonism ([4]; at 100 mg/kg per os) | ED50 [5] | ED50 [1] | Toxicity: LD 80 [2] | Antagonism of hypothermia induced by reserpine, percentage of antagonism ([4]; at 20 mg/kg per os, ** p < 0.01) | Porsolt test: reduction in the immobilization time with respect to controls [6, 8] | ED50 [7] | Antagonism of hypothermia induced by reserpine, percentage of antagonism [4, 9] | Toxicity: LD 40 [2] | Porsolt test: reduction in the immobilization time with respect to controls ([6]; 5 mg/kg, ** p < 0.01)
1 | OC1CCN(c2nc(-c3ccccc3Cl)c3cc(Cl)ccc3n2)CC1 [40 331, 6-chloro 4-(2-chlorophenyl) 2-(4-hydroxy 1-piperidinyl) quinazoline, reference compound] | 0% | Atoxic at 500 mg/kg | virtually inactive | -20% | – | – | – | – | – | – | – | – | –
2 | CN1CCN(c2nc(-c3ccccc3Cl)c3cc(Cl)ccc3n2)CC1 [40 460] | – | – | – | – | 5.4 mg/kg | 2.1 mg/kg | 1000 mg/kg | +71% | -11% | 142 mg/kg | – | – | –
3 | CN1CCN(c2nc(-c3ccccc3F)c3cc(Cl)ccc3n2)CC1 [40 468] | – | Atoxic at 1 g/kg | – | – | 1.65 mg/kg | 0.98 mg/kg | – | – | -61% | 50 mg/kg | +73% | – | –
4 | CN1CCN(c2nc(-c3ccccc3Cl)c3cc([N+](=O)[O-])ccc3n2)CC1 [40 498, 2-(1-methyl 4-piperazinyl) 4-(2-chlorophenyl) 6-nitro quinazoline] | – | Atoxic at 1 g/kg | – | – | 7.8 mg/kg | 2.8 mg/kg | – | – | -31% | 43.5 mg/kg | +68% | – | –
5 | Fc1ccccc1-c1nc(N2CCNCC2)nc2ccc(Cl)cc12 [41 125] | – | – | – | – | 0.74 mg/kg | 0.48 mg/kg | – | – | – | 9.5 mg/kg | +81% | 1000 mg/kg | -46
6 | CCCN1CCN(c2nc(-c3ccccc3F)c3cc(Cl)ccc3n2)CC1 [41 128] | – | Atoxic at 1 g/kg | – | – | 1.7 mg/kg | 6.2 mg/kg | – | – | – | – | +62% | – | -31
7 | CN(C)CCCN1c2ccccc2CCc2ccccc21 [Imipramine, reference compound] | – | – | – | – | – | 2.4 mg/kg | – | – | -30% | 12 mg/kg | +59% | – | –
